Data as given in PubChem BioAssay AID330 (DTP/NCI, 2004).
Where “and” joins values, the source holds several entries; their conditions need not be identical. Equal values may be shown once. Inconclusive results and toxic doses are left out. How the source made its calls: active means survival T/C of 150% or more; inactive means T/C below 125% in these data. Square brackets hold non-standard residues; d marks the D form. Peptide text beside a SMILES is read from it. * marks the point of attachment. Cbz = O=C(OCc1ccccc1)*; Nva = CCC[CH](N)C(=O)O

System: P388 leukemia ip, CD2F1 mice, survival T/C
Assay: NCI In Vivo Anticancer Drug Screen. Data for tumor model P388 Leukemia (intraperitoneal) in CD2F1 (CDF1) mice
Details: endpoint: median survival time, higher = longer survival
Procedure, shortened: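 Mice carrying the transplanted tumor received test compound or vehicle. Survival was recorded in each group, and the value is the treated-group measurement divided by that of the vehicle-treated control group.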

[1] = dose: 100.0 mg/kg/injection, schedule: Q01DX001 (ip), vehicle: saline with Tween-80
[2] = dose: 200.0 mg/kg/injection, schedule: Q01DX001 (ip), vehicle: saline with Tween-80
[3] = dose: 400.0 mg/kg/injection, schedule: Q01DX001 (ip), vehicle: saline with Tween-80
[4] = dose: 25.0 mg/kg/injection, schedule: Q01DX009 (ip), vehicle: saline with Tween-80
[5] = dose: 50.0 mg/kg/injection, schedule: Q01DX009 (ip), vehicle: saline with Tween-80
[6] = dose: 100.0 mg/kg/injection, schedule: Q01DX009 (ip), vehicle: saline with Tween-80
[7] = dose: 60.0 mg/kg/injection, schedule: Q01DX005 (ip), vehicle: saline
[8] = dose: 120.0 mg/kg/injection, schedule: Q01DX005 (ip), vehicle: saline
[9] = dose: 240.0 mg/kg/injection, schedule: Q01DX005 (ip), vehicle: saline
[10] = dose: 200.0 mg/kg/injection, schedule: Q01DX009 (ip), vehicle: saline with Tween-80
[11] = dose: 50.0 mg/kg/injection, schedule: Q01DX005 (ip), vehicle: Klucel (hydroxypropylcellulose) (HPC)
[12] = dose: 100.0 mg/kg/injection, schedule: Q01DX005 (ip), vehicle: Klucel (hydroxypropylcellulose) (HPC)
[13] = dose: 200.0 mg/kg/injection, schedule: Q01DX005 (ip), vehicle: Klucel (hydroxypropylcellulose) (HPC)
[14] = dose: 15.0 mg/kg/injection, schedule: Q01DX005 (ip), vehicle: saline with Tween-80
[15] = dose: 30.0 mg/kg/injection, schedule: Q01DX005 (ip), vehicle: saline with Tween-80
[16] = dose: 60.0 mg/kg/injection, schedule: Q01DX005 (ip), vehicle: saline with Tween-80

Measured: T/C

CN(C)CCCN1CCC2(CCCCC2)CC1
inactive: dose: 50.0 mg/kg/injection, schedule: Q01DX005 (ip), vehicle: saline 94 % of control | dose: 100.0 mg/kg/injection, schedule: Q01DX005 (ip), vehicle: saline 98 % of control | dose: 200.0 mg/kg/injection, schedule: Q01DX005 (ip), vehicle: saline 109 % of control

CCOC(=O)C(/C=N/NC(N)=S)CC (configuration not stated)
inactive: [1] 100 % of control | [2] 99 % of control | [3] 97 % of control

COC(CCl)(CBr)OC
inactive: [4] 95 % of control | [5] 97 % of control | [6] 105 % of control

[Ni+2].[O-]c1ccccc1C=NCCCCCCN=Cc1ccccc1[O-]
inactive: dose: 50.0 mg/kg/injection, schedule: Q04DX002 (ip), vehicle: saline with Tween-80 94 % of control | dose: 100.0 mg/kg/injection, schedule: Q04DX002 (ip), vehicle: saline with Tween-80 93 % of control | dose: 200.0 mg/kg/injection, schedule: Q04DX002 (ip), vehicle: saline with Tween-80 93 % of control

NC(Cc1cnc[nH]1)C(=O)NC(Cc1ccc(O)cc1)C(=O)O (stereo not drawn) (H-His-Tyr-OH; configuration not given here)
inactive: [7] 100 % of control | [8] 101 % of control | [9] 100 % of control

O=P(Oc1ccccc1)(Oc1ccccc1)C(O)C(Cl)(Cl)Cl (configuration not stated)
inactive: [5] 107 % of control | [6] 100 % of control and 117 % of control | [10] 103 % of control

O=C(NCCN1CCOCC1)Nc1ccc2c(c1)OCCOCCOCCOCCO2
inactive: [7] 105 % of control | [8] 102 % of control | [9] 99 % of control

COc1cc2cc3c(c(O)c2c(O)c1/C=C/C(C)C)C(=O)CC(C)(OC(C)=O)C3 (configuration not stated)
inactive: dose: 2.5 mg/kg/injection, schedule: Q01DX005 (ip), vehicle: Klucel (hydroxypropylcellulose) (HPC) 103 % of control | dose: 5.0 mg/kg/injection, schedule: Q01DX005 (ip), vehicle: Klucel (hydroxypropylcellulose) (HPC) 117 % of control

Cn1c(=O)c2c(ncn2C2C(=O)NNC2=O)n(C)c1=O
inactive: dose: 100.0 mg/kg/injection, schedule: Q01DX001 (ip), vehicle: Klucel (hydroxypropylcellulose) (HPC) 100 % of control | dose: 200.0 mg/kg/injection, schedule: Q01DX001 (ip), vehicle: Klucel (hydroxypropylcellulose) (HPC) 93 % of control | dose: 400.0 mg/kg/injection, schedule: Q01DX001 (ip), vehicle: Klucel (hydroxypropylcellulose) (HPC) 94 % of control

CC1CN2CC(C)O[Si](CC[Si]34OC(C)CN(CC(C)O3)CC(C)O4)(O1)OC(C)C2 (configuration not stated)
inactive: [11] 108 % of control | [12] 106 % of control | [13] 105 % of control

O=C1CCCc2c1[nH]c1ccccc21
inactive: [4] 100 % of control | [5] 105 % of control | [6] 108 % of control | [10] 104 % of control

CC(C)(C)N=O
inactive: [4] 104 % of control | [5] 103 % of control | [1] 100 % of control and 106 % of control | [6] 111 % of control | [2] 100 % of control and 106 % of control and 109 % of control | [3] 105 % of control and 119 % of control | dose: 800.0 mg/kg/injection, schedule: Q01DX001 (ip), vehicle: saline with Tween-80 89 % of control

Cc1c(N)nc(C(CC(N)=O)NCC(N)C(N)=O)nc1C(=O)NC(C(=O)NC(C)C(O)C(C)C(=O)NC(C(=O)NCCc1nc(-c2nc(C(=O)NCCCNCCCc3ccccn3)cs2)cs1)C(C)O)C(OC1OC(CO)C(O)C(O)C1OC1OC(CO)C(O)C(OC(N)=O)C1O)c1cnc[nH]1 (configuration not stated)
inactive: dose: 0.25 mg/kg/injection, schedule: Q01DX009 (ip), vehicle: water 110 % of control | dose: 0.5 mg/kg/injection, schedule: Q01DX009 (ip), vehicle: water 104 % of control | dose: 1.0 mg/kg/injection, schedule: Q01DX009 (ip), vehicle: water 111 % of control | dose: 2.0 mg/kg/injection, schedule: Q01DX009 (ip), vehicle: water 101 % of control | dose: 4.0 mg/kg/injection, schedule: Q01DX009 (ip), vehicle: saline 104 % of control | dose: 8.0 mg/kg/injection, schedule: Q01DX009 (ip), vehicle: saline 104 % of control | dose: 16.0 mg/kg/injection, schedule: Q01DX009 (ip), vehicle: saline 112 % of control | dose: 32.0 mg/kg/injection, schedule: Q01DX009 (ip), vehicle: saline 105 % of control

CN1CCCOC(c2ccccc2)c2ccsc2CC1 (configuration not stated)
inactive: dose: 7.5 mg/kg/injection, schedule: Q01DX005 (ip), vehicle: saline with Tween-80 101 % of control | [14] 102 % of control | [15] 102 % of control | [16] 101 % of control and 93 % of control

O=[N+]([O-])c1ccc(Cl)c2c([N+](=O)[O-])cccc12
inactive: [5] 102 % of control | [6] 110 % of control

CC1=Nc2nc(=NCCCN(C)C)nc3cccc(n23)N1
inactive: [14] 99 % of control | [15] 100 % of control | [16] 104 % of control and 97 % of control

Nc1ncnc(N)c1NC(=O)c1ccc(OCc2ccccc2)cc1
inactive: [16] 105 % of control | dose: 120.0 mg/kg/injection, schedule: Q01DX005 (ip), vehicle: saline with Tween-80 99 % of control | dose: 240.0 mg/kg/injection, schedule: Q01DX005 (ip), vehicle: saline with Tween-80 95 % of control

O=C(O)CN(CCO)CCN(CC(=O)O)CC(=O)O
inactive: dose: 12.5 mg/kg/injection, schedule: Q01DX009 (ip), vehicle: saline 100 % of control | [4] 100 % of control | dose: 25.0 mg/kg/injection, schedule: Q01DX009 (ip), vehicle: saline 104 % of control | [5] 95 % of control | dose: 50.0 mg/kg/injection, schedule: Q01DX009 (ip), vehicle: saline 95 % of control | [6] 100 % of control | dose: 100.0 mg/kg/injection, schedule: Q01DX009 (ip), vehicle: saline 98 % of control

S=C(Nc1ccccc1)Nc1ncccn1
inactive: dose: 50.0 mg/kg/injection, schedule: Q01DX009 (ip), vehicle: Klucel (hydroxypropylcellulose) (HPC) 111 % of control | dose: 100.0 mg/kg/injection, schedule: Q01DX009 (ip), vehicle: Klucel (hydroxypropylcellulose) (HPC) 99 % of control

C[C@H]1CC(=O)SC1=O
inactive: dose: 25.0 mg/kg/injection, schedule: Q04DX002 (ip), vehicle: saline 100 % of control | dose: 50.0 mg/kg/injection, schedule: Q04DX002 (ip), vehicle: saline 93 % of control

O=S(=O)(C1CC1c1ccccc1)C1CC1c1ccc(F)cc1 (configuration not stated)
inactive: dose: 50.0 mg/kg/injection, schedule: Q01DX005 (ip), vehicle: saline with Tween-80 100 % of control | dose: 100.0 mg/kg/injection, schedule: Q01DX005 (ip), vehicle: saline with Tween-80 95 % of control | dose: 200.0 mg/kg/injection, schedule: Q01DX005 (ip), vehicle: saline with Tween-80 101 % of control

CCCC(NC(=O)OCc1ccccc1)C(=O)NC(Cc1ccc(O)cc1)C(=O)O (configuration not stated) (Cbz-[Nva]-Tyr-OH; configuration not given here)
inactive: [11] 102 % of control | [12] 105 % of control | [13] 94 % of control

c1ccc(N2CCN(c3ccccc3)C2=C2N(c3ccccc3)CCN2c2ccccc2)cc1
inactive: dose: 3.0 mg/kg/injection, schedule: Q01DX005 (ip), vehicle: saline 105 % of control | dose: 6.0 mg/kg/injection, schedule: Q01DX005 (ip), vehicle: saline 107 % of control | dose: 12.0 mg/kg/injection, schedule: Q01DX005 (ip), vehicle: saline 105 % of control | dose: 12.5 mg/kg/injection, schedule: Q01DX005 (ip), vehicle: saline 114 % of control | dose: 25.0 mg/kg/injection, schedule: Q01DX005 (ip), vehicle: saline 99 % of control and 118 % of control

Nc1ccc2[nH]c(=S)[nH]c2c1
inactive: dose: 10.0 mg/kg/injection, schedule: Q01DX009 (ip), vehicle: saline with Tween-80 100 % of control | dose: 20.0 mg/kg/injection, schedule: Q01DX009 (ip), vehicle: saline with Tween-80 104 % of control | dose: 40.0 mg/kg/injection, schedule: Q01DX009 (ip), vehicle: saline with Tween-80 100 % of control | [6] 95 % of control | dose: 400.0 mg/kg/injection, schedule: Q01DX009 (ip), vehicle: saline with Tween-80 95 % of control
